In patent US9375496B2, “Halogenated compounds for cancer imaging and treatment and methods for their use” (The University of British Columbia, priority 2013, dated 2016):

Columns and labels:
recombinant LBD of PR = target: T1, recombinant LBD of PR (Homo sapiens, UniProt P06401); assay: Competitive ligand-binding assay (fluorescent polarization), recombinant PR LBD; settings: 1 nM fluorescently labeled ligand, 5 h incubation, serial dilution
T1 sequence (P06401 679-913 limits assumed): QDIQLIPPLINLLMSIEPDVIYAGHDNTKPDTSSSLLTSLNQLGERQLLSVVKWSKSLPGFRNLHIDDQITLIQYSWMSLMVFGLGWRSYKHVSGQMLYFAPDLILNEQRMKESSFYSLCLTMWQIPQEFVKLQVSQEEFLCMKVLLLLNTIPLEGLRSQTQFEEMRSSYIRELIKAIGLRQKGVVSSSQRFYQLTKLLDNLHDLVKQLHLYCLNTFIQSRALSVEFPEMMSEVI
Protocol: (§1) Competitive ligand-binding assays to detect the displacement of fluorescently labeled ligand from recombinant LBDs (ligand binding domains) of AR, PR, GR and estrogen receptor (ER) by R1881, MDV3100, Z (also referred to as EPI-002 or EPI) or 8d (also referred to as iodinated EPI) were performed. FIGS. 14A-14E display competitive ligand-binding curves to indicate whether R1881, Z, antiandrogens (enzalutamide, hydroxyflutamide, bicalutamide) or 8d can displace 1 nM fluorescently labeled cognant ligand from recombinant LBDs of steroid hormone receptors by using fluorescent polarization (mP). Serial dilution was performed for each test compound. Mixtures were incubated for 5 h before measurement of fluorescent polarization.

recombinant LBD of AR = target: T2, recombinant LBD of AR (Homo sapiens, UniProt P10275); assay: Competitive ligand-binding assay (fluorescent polarization), recombinant AR LBD; settings: 1 nM fluorescently labeled ligand, 5 h incubation, serial dilution
T2 sequence (P10275 669-900 limits assumed): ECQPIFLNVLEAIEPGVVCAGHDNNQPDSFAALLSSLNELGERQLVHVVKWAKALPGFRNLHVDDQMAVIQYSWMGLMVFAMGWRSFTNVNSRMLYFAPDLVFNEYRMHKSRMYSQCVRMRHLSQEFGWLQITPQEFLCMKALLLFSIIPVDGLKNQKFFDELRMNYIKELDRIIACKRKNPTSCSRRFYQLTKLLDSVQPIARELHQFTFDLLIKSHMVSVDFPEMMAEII
Protocol: as §1

DU145 cells = assay: DU145 cell viability, alamarBlue Cell Viability Assay; type: cell-based; settings: day 3, at concentrations that reduced LNCaP proliferation
Text: (§2) Effects of 8d (also referred to as I-EPI-002) on androgen-dependent proliferation of LNCaP cells treated with R1881 were compared with PC3 and DU145 cell viability by alamarBlue Cell Viability Assay (FIG. 16).

PC3 cells = assay: PC3 cell viability, alamarBlue Cell Viability Assay; type: cell-based; settings: day 3, at concentrations that reduced LNCaP proliferation
Text: as §2

recombinant LBD of GR = target: T3, recombinant LBD of GR (Homo sapiens, UniProt P04150); assay: Competitive ligand-binding assay (fluorescent polarization), recombinant GR LBD; settings: 1 nM fluorescently labeled ligand, 5 h incubation, serial dilution
T3 sequence (P04150 524-758 limits assumed): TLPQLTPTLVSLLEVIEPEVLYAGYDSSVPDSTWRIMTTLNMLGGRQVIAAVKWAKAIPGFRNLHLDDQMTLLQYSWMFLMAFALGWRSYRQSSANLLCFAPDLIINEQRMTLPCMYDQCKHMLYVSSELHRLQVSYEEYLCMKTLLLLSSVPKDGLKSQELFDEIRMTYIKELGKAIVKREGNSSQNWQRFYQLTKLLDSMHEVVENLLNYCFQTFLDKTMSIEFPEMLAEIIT
Protocol: as §1

LNCaP cells = assay: Androgen-dependent proliferation of LNCaP cells, alamarBlue Cell Viability Assay; type: cell-based; settings: LNCaP treated with R1881, day 4, alamarBlue
Text: as §2

estrogen receptor-α (ER) = target: T4, estrogen receptor-α (ER) (Homo sapiens, UniProt P03372); assay: ERE-luciferase reporter assay in LNCaP cells cotransfected with full-length human ERα; type: cell-based; settings: 1.9 μM 8d, 10 nM E2 (estradiol), 24 h, LNCaP cells (FIG. 2D)
T4 construct: expression plasmids for full-length human ERα; expressed in transfected cells; host or cells: LNCaP
T4 sequence (P03372 1-595): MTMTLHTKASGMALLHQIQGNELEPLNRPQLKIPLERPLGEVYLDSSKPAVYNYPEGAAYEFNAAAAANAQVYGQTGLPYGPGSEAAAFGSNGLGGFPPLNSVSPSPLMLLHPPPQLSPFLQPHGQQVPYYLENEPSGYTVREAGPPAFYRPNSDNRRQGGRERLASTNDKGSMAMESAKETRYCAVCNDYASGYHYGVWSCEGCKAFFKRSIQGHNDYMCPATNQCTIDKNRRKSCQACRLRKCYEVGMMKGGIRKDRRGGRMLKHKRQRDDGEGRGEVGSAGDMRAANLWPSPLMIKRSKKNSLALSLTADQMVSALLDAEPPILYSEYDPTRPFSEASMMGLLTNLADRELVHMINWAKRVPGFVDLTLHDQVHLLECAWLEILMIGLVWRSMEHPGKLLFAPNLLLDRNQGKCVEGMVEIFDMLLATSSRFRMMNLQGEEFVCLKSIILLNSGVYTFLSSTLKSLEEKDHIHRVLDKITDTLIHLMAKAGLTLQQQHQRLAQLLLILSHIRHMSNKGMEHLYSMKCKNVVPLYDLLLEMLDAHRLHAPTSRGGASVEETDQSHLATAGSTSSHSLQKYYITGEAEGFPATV
Protocol: To assess specificity for the AR, parallel experiments were performed in LNCaP cells with endogenous AR and ectopic expression of other closely related human hormone receptors such as the progesterone receptor-beta (PRβ), glucocorticoid receptor (GR) and estrogen receptor-α (ER).
For 8d, 1 μg/mL=1.9 μM in FIGS. 2A-2D.

binding to LBD of PR (displacement of fluorescently labeled ligand) (recombinant LBD of PR): does not bind
binding to LBD of AR (displacement of fluorescently labeled ligand) (recombinant LBD of AR): does not bind
binding to LBD of GR (displacement of fluorescently labeled ligand) (recombinant LBD of GR): does not bind
ERα activity (ERE-luciferase) (estrogen receptor-α (ER)): not inhibited
SMILES: CC(C)(c1ccc(OC[C@H](O)CO)cc1)c1ccc(OC[C@H](O)CCl)c(I)c1 [Compound 8d, (R)-3-(4-(2-(4-((S)-3-chloro-2-hydroxypropoxy)-3-iodophenyl)propan-2-yl)phenoxy)propane-1,2-diol]
viability of DU145 cells (DU145 cells): no effect
viability of PC3 cells (PC3 cells): no effect
AR-dependent proliferation of LNCaP cells (LNCaP cells): reduced
